In general, IC50 refers to the point on the concentration scale where inhibition reaches its midpoint.

Values joined by “and” are separate entries in the source; they are usually repeats but may differ in a detail not shown here. Equal entries are not always repeated. Where two headings read alike, the source gives them in different places. A value given as a limit tells only on which side of the number the result lay.

This is an account of results in patent US20180371408A1, “CELL CULTURES AND METHODS OF USE” (priority 2017, published 2018).

The test system of data set [1] is Spermatogonial cells (C18-4). The data set is described as follows: cells. Format: cell-based, mouse.
In data set [2] the test system is Leydig cells (TM3). The data set is described as follows: cells. Format: cell-based, mouse.
The subject of data set [3] is Sertoli cells (TM4). The data set is described as follows: cells. Format: cell-based, mouse.
The subject of data set [4] is testicular co-culture: spermatogonial cells (C18-4), Sertoli cells (TM4), Leydig cells (TM3). The conditions noted are these: for concentration with statistically significant decrease in viability (p<0.05): 48 h exposure.
Data set [5] shares this test system. Nature of the data set: cells. The conditions noted are these: Mus musculus.
The test system of data set [6] is reproductive system. As to conditions: cited from earlier work.
The subject of data set [7] is reproductive system. As to conditions: cited from earlier work. This is another data set of the same source.
Setting [8] is: Mus musculus, 24 h, read-out: IC50.
[9] abbreviates: Mus musculus, 48 h, read-out: IC50.
The mark [10] stands for this setting: Mus musculus, Leydig, 24 h, read-out: IC50.
Where [11] appears, read: Mus musculus, Leydig, 48 h, read-out: IC50.
Where [12] appears, read: co-culture, 48 h treatment, FIG. 6.
[13] abbreviates: based on ToxCast database and literature search.
[14] abbreviates: Spermatogonial Cell, 48 h, highest concentration tested assigned as IC50 where viability did not decrease 50%, read-out: IC50.
[15] abbreviates: Leydig Cell, 48 h, highest concentration tested assigned as IC50 where viability did not decrease 50%, read-out: IC50.
Setting [16] is: Co-culture, 24 h, highest concentration tested assigned as IC50 where viability did not decrease 50%.
Setting [17] is: Co-culture, 48 h, highest concentration tested assigned as IC50 where viability did not decrease 50%.
The mark [18] stands for this setting: Spermatogonial Cell, 24 h, highest concentration tested assigned as IC50 where viability did not decrease 50%, read-out: IC50.
The mark [19] stands for this setting: Leydig Cell, 24 h, highest concentration tested assigned as IC50 where viability did not decrease 50%, read-out: IC50.
[20] abbreviates: Sertoli Cell, 24 h, highest concentration tested assigned as IC50 where viability did not decrease 50%, read-out: IC50.
[21] abbreviates: Sertoli Cell, 48 h, highest concentration tested assigned as IC50 where viability did not decrease 50%, read-out: IC50.

Consider `CCOP(=S)(OCC)Oc1nc(Cl)c(Cl)cc1Cl` [CHL, chlorpyrifos], for which the IC50 came to 118 µM in data set [1] (setting [8]); 96 µM in data set [1] (setting [9]); 142 µM in data set [2] (setting [10]); 120 µM in data set [2] (setting [11]); 212 µM in data set [3] (setting [8]); 120 µM in data set [3] (setting [9]). Further, the half-maximal inhibitory concentration (IC50) in data set [5] (24 h) is 91.5 µM; in data set [5] (48 h), 89 µM; in data set [5] (read-out: IC50 values (mostly)), ≤ 100 µM. Besides, the “effect on cell viability (NR uptake), in words” value (“effect on cell viability” for short) in data set [4] (setting [12]) was “significant dose-dependent decrease of cell viability”. Besides, in data set [6] (setting [13]), the “In vivo Reproductive Toxicity” value is “+”.

For `CCCCCOC(=O)c1ccccc1C(=O)OCCCCC` [DPP], the IC50 in data set [1] (setting [14]) stood at 372 µM; in data set [2] (setting [15]), 244 µM; in data set [4] (setting [16]), 550 µM; in data set [4] (setting [17]) it was 352 µM. Also, in data set [4] (setting [12]), the “effect on cell viability” value is on record as “dose-dependent decrease of cell viability”.

Turning to `OB(O)O` [BA, Boric acid], the IC50 was > 5000 µM in data set [1] (Mus musculus, 24 h); 3580 µM in data set [1] (Mus musculus, 48 h); > 5000 µM in data set [2] (Mus musculus, Leydig, 24 h); > 5000 µM in data set [2] (Mus musculus, Leydig, 48 h); > 5000 µM in data set [3] (Mus musculus, 24 h); > 5000 µM in data set [3] (Mus musculus, 48 h). Further, the half-inhibitory concentration (IC50) in data set [5] (24 h) and in data set [5] (48 h) was > 5000 µM each time. Also, the “effect on cell viability” value in data set [4] is “statistically significant decreases in cell viability”. Besides, the “in vitro call as reproductive toxicant” value in data set [4] was “negative”. Further, the “In vivo Reproductive Toxicity” value in data set [6] (in vivo) was “+”. Further, the “call in in vivo models” value in data set [6] (in vivo) was “positive”.

For `O=P1(N(CCCl)CCCl)NCCCO1` (stereo not shown) [CYC, Cyclophosphamide], the IC50 was > 5000 µM in data set [1] (Mus musculus, 24 h); > 5000 µM in data set [1] (Mus musculus, 48 h); > 5000 µM in data set [2] (Mus musculus, Leydig, 24 h); > 5000 µM in data set [2] (Mus musculus, Leydig, 48 h); > 5000 µM in data set [3] (Mus musculus, 24 h); > 5000 µM in data set [3] (Mus musculus, 48 h). Besides, the half-maximal inhibitory concentration (IC50) in data set [5] (24 h) and in data set [5] (48 h) was > 5000 µM throughout. For the same compound, the “effect on cell viability” value in data set [4] is recorded as “did not cause a significant decrease in cell viability”. The “in vitro call as reproductive toxicant” value in data set [4] is recorded as “negative”. Also, the “In vivo Reproductive Toxicity” value in data set [6] (in vivo) is reported as “+”. Moreover, in data set [6] (in vivo), the “call in in vivo models” value is reported as “positive”.

Regarding `O=C1NS(=O)(=O)c2ccccc21` [SAC], the “effect on cell viability” value in data set [4] (setting [12]) is recorded as “did not cause a significant decrease in cell viability”.

On to `CCCCOC(=O)c1ccccc1C(=O)OCCCC` [DBP, Dibutyl phthalate], for which the IC50 in data set [1] (setting [8]) was ≥ 400 µM; in data set [1] (setting [9]), 371 µM; in data set [2] (setting [10]), ≥ 400 µM; in data set [2] (setting [11]) it was ≥ 400 µM; in data set [3] (setting [8]) it was ≥ 400 µM; in data set [3] (setting [9]) it was ≥ 400 µM. Besides, the IC50 in data set [5] (24 h) was 437 µM; in data set [5] (48 h), 388 µM. Also, in data set [4] (co-culture, FIG. 6), the “concentration with statistically significant decrease in viability (p<0.05)” value came to 200 µM. In addition, in data set [4] (setting [12]), the “effect on cell viability” value is reported as “dose-dependent decrease of cell viability”. The “In vivo Reproductive Toxicity” value in data set [6] (setting [13]) is reported as “+”.

Regarding TCEP, the results for the IC50 in data set [1] (setting [18]) and in data set [1] (setting [14]) were 5110 µM and 3680 µM, respectively. The “effect on cell viability” value in data set [4] (setting [12]) is “statistically significant decreases in cell viability”.

`Oc1cc(Cl)ccc1Oc1ccc(Cl)cc1Cl` [TCS]: the 50% inhibitory concentration (IC50) in data set [1] (setting [18]) came out at 62.7 µM; in data set [1] (setting [14]), 57.3 µM; in data set [2] (setting [19]), 135 µM; in data set [2] (setting [15]), 80 µM; in data set [3] (setting [20]), 81 µM; in data set [3] (setting [21]), 72.7 µM. Besides, the IC50 in data set [4] (setting [16]) turned out to be 121 µM; in data set [4] (setting [17]), 76.5 µM. In data set [4] (setting [12]), the “effect on cell viability” value is recorded as “significant dose-dependent decrease of cell viability”.

Sodium arsenite [As]: the IC50 in data set [1] (read-out: IC50) was 6.9 µM and 6.8 µM; in data set [2] (read-out: IC50) it was 20.3 µM and 16.1 µM; in data set [3] (read-out: IC50) it was 12 µM and 6.9 µM; in data set [4], 15 µM and 10 µM. Besides, the “effect on cell viability” value in data set [4] is given as “most toxic”. The “In vivo Reproductive Toxicity” value in data set [6] (in vivo) is reported as “+”. For the same compound, in data set [7] (rat, in vivo), the “reproductive LOAEL” value is 8 mg/kg/day.

Consider `C[C@H]1CCCC(=O)CCC/C=C/c2cc(O)cc(O)c2C(=O)O1` [ZEA, Zearalenone], for which the IC50 amounted to 3.8 µM in data set [1] (setting [8]); 2 µM in data set [1] (setting [9]); 3.4 µM in data set [2] (setting [10]); 2.5 µM in data set [2] (setting [11]); 3.1 µM in data set [3] (setting [8]); 2.5 µM in data set [3] (setting [9]). In addition, the half-inhibitory concentration (IC50) in data set [5] (24 h) is 7.2 µM; in data set [5] (48 h) it was 4.1 µM; in data set [5] (read-out: IC50 values (mostly)), ≤ 100 µM. Besides, the “In vivo Reproductive Toxicity” value in data set [6] (setting [13]) was “+”. Moreover, the “reproductive LOAEL” value in data set [7] (in rats) is given as 1 mg/kg/day.

Regarding `COC(=O)c1ccccc1C(=O)OC` [DMP], in data set [4] (setting [12]), the “effect on cell viability” value is “no or slight decrease of cell viability”. Besides, in data set [6] (in vivo), the “developmental toxicity of phthalates (literature)” value is recorded as “developmental non-toxic”.

In the case of `O=C(c1ccc2c(c1)C(=O)OC2=O)c1ccc2c(c1)C(=O)OC2=O` [BEN, Benzophenone-3,3′,4,4′-tetracarboxylic dianhydride], the “effect on cell viability” value in data set [4] (setting [12]) was “significant dose-dependent decrease of cell viability”. Besides, in data set [6] (setting [13]), the “In vivo Reproductive Toxicity” value is “+”.

For `CCOC(=O)c1ccccc1C(=O)OCC` [DEP, Diethylphthalate], the IC50 in data set [1] (setting [8]), in data set [1] (setting [9]), in data set [2] (setting [10]), in data set [2] (setting [11]), in data set [3] (setting [8]) and in data set [3] (setting [9]) was > 400 µM each time. In addition, the half-inhibitory concentration (IC50) in data set [5] (24 h) and in data set [5] (48 h) was > 400 µM throughout. Moreover, the “effect on cell viability” value in data set [4] (setting [12]) was “no or slight decrease of cell viability”. For the same compound, the “In vivo Reproductive Toxicity” value in data set [6] (setting [13]) is listed as “−”. Moreover, the “developmental toxicity of phthalates (literature)” value in data set [6] (in vivo) was “developmental non-toxic”.

As to `NC(=O)NO` [HU], the IC50 in data set [1] (setting [14]) came to 300 µM; in data set [2] (setting [19]), 600 µM; in data set [2] (setting [15]), 200 µM; in data set [3] (setting [20]), 396 µM; in data set [3] (setting [21]), 150 µM; in data set [4] (setting [17]), 200 µM. For the same compound, the “effect on cell viability” value in data set [4] (setting [12]) is “statistically significant decreases in cell viability”.

`CCCC(CCC)C(=O)[O-].[Na+]` [VPA, Valproic acid sodium salt]: the 50% inhibitory concentration (IC50) was > 20000 µM in data set [1] (setting [8]); 6000 µM in data set [1] (setting [9]); > 20000 µM in data set [2] (setting [10]); 9480 µM in data set [2] (setting [11]); > 20000 µM in data set [3] (setting [8]); 7610 µM in data set [3] (setting [9]). The IC50 in data set [5] (24 h) was > 20000 µM; in data set [5] (48 h) it was 8850 µM. For the same compound, in data set [4] (setting [12]), the “effect on cell viability” value was “statistically significant decreases in cell viability”. Besides, the “In vivo Reproductive Toxicity” value in data set [6] (setting [13]) is “+”.

Consider `CCCCOC(=O)c1ccccc1C(=O)OCc1ccccc1` [BBP, Benzyl butyl phthalate], for which the IC50 in data set [1] (setting [8]), in data set [1] (setting [9]), in data set [2] (setting [10]), in data set [2] (setting [11]), in data set [3] (setting [8]) and in data set [3] (setting [9]) was ≥ 400 µM throughout. The concentration for half-maximal inhibition (IC50) in data set [5] (24 h) worked out at 885 µM; in data set [5] (48 h), 539 µM. Moreover, in data set [4] (co-culture, FIG. 6), the “concentration with statistically significant decrease in viability (p<0.05)” value was found to be 200 µM. Also, in data set [4] (setting [12]), the “effect on cell viability” value is “dose-dependent decrease of cell viability”. Further, in data set [6] (setting [13]), the “In vivo Reproductive Toxicity” value is reported as “+”.

Consider `CC/C(=C(/CC)c1ccc(O)cc1)c1ccc(O)cc1` [DES, Diethylstilbestrol], for which the “In vivo Reproductive Toxicity” value in data set [6] (setting [13]) is “+”. Further, the “reproductive LOAEL” value in data set [7] (in rats) is recorded as 10 mg/kg/day.
